Data from US11221321B2, “Liquid chromatographic method for the simultaneous analysis of antihypertensive and antilipidemic agents and interactions thereof” (Imam Abdulrahman Bin Faisal University, priority 2019, dated 2022).

Test: In vitro drug-drug interaction studies of sartan and statin in dissolution media by UV/Visible spectrophotometry
Format: physicochemical
Details: SGM and pH 4, 7.4, 9, 37° C., 2 hours; for interaction of losartan and atorvastatin (FIG. 7): LOS + ATR added together at 0 min; for interaction of valsartan and atorvastatin (FIG. 10): VAL + ATR added together at 0 min
Description: Interaction studies by UV/Visible spectrophotometry. In vitro interaction studies of antihypertensive drugs and antilipidemic agents were studied individually by using different kinds of dissolution media: SGM and media at pH 4, 7.4 and 9 as described in the experimental section.
In each set of experiments losartan or valsartan was initially added at 0 min to 500 mL dissolution medium SGM or media at pH 4, 7.4 and 9 already maintained at 37° C. The second drug, statin (ATOR, PRA or SIM) was added at the same time at zero mins. 5 mL samples were collected at regular intervals for 2 hours. The drug contents (losartan in presence of respective interacting drug, and valsartan in presence of respective interacting drug) were quantified spectrophotometrically at their respective λmax by employing simultaneous equations; FIGS. 7-12.
In FIG. 7, the drug contents (losartan in presence of respective interacting drug) were quantified spectrophotometrically at their respective λmax by employing simultaneous equations, that is, by using the molar absorptive value of the drug at a particular wavelength and a particular pH.
As the spectra of the two interacting drugs fused with each other, simultaneous methods were developed to determine losartan/valsartan and drugs of interacting classes along with each other. This technique enables one to quantitate the content of the two drugs co-existing in the same medium, without needing to separate them. To achieve this, molar absorptivity values of both losartan and the respective interacting drug were calculated at λmax of their own and at the λmax of each other using their calibration curves standards in all four pH medium.

| interaction of losartan and atorvastatin (FIG. 7) | interaction of valsartan and atorvastatin (FIG. 10) | interaction of losartan and pravastatin (FIG. 8) (LOS + PRA added together at 0 min) | interaction of losartan and simvastatin (FIG. 9) (LOS + SIM added together at 0 min) | interaction of valsartan and pravastatin (FIG. 11) (VAL + PRA added together at 0 min) | interaction of valsartan and simvastatin (FIG. 12) (VAL + SIM added together at 0 min) | SMILES |
| --- | --- | --- | --- | --- | --- | --- |
| have undergone interaction | may interact in the digestive tract | – | – | – | – | CC(C)c1c(C(=O)Nc2ccccc2)c(-c2ccccc2)c(-c2ccc(F)cc2)n1CC[C@@H](O)C[C@@H](O)CC(=O)O [ATR, Atorvastatin] |
| have undergone interaction | – | may interact in the digestive tract | NOT available in their original form | – | – | CCCCc1nc(Cl)c(CO)n1Cc1ccc(-c2ccccc2-c2nn[nH]n2)cc1 [LOS, Losartan] |
| – | may interact in the digestive tract | – | – | may interact in the digestive tract | may interact in the digestive tract | CCCCC(=O)N(Cc1ccc(-c2ccccc2-c2nnn[nH]2)cc1)[C@H](C(=O)O)C(C)C [VAL, Valsartan] |
